Read-outs that look alike come from different tables or passages of the source.
Columns and labels:
[1] = test system: human colorectal HT-29 tumor cell line; experiment: Tumor cell growth assay (Cell Titer Glo); type: cell-based; conditions: read-out: IC50 μM against HT-29
[2] = test system: human breast MDA-MB-231 tumor cell line; experiment: Tumor cell growth assay (Cell Titer Glo); type: cell-based; conditions: read-out: IC50 μM against MDA-MB-231
COX1 = COX1 (Ovis aries (Sheep), UniProt P05979); experiment: COX-1 activity, colorimetric assay; type: biochemical, ovine; conditions: screening dose 100 μM; read-out: IC50 μM against COX1
Chain of COX1 (P05979 25-600): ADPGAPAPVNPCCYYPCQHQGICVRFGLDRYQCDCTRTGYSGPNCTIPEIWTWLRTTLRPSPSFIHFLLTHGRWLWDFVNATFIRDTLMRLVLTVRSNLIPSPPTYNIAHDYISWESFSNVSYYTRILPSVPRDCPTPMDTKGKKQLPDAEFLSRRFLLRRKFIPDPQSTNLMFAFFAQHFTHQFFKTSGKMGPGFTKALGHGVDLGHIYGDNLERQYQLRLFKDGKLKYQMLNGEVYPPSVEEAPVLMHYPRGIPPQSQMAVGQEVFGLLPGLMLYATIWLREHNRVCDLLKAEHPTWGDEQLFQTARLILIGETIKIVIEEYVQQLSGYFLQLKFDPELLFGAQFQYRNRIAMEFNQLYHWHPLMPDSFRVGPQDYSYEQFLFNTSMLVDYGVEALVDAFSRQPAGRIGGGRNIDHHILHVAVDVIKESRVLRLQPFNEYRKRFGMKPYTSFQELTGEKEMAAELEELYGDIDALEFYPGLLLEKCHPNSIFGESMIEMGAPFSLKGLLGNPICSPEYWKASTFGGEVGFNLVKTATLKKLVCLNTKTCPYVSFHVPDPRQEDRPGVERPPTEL
Description: (§1) Compounds according to the present disclosure were tested for their in vitro ability to inhibit recombinant human PDE5, COX1 and COX2 enzymes at screening doses of 50, 100 and 100 μM respectively.
(§2) COX-1 and COX-2 activities were measured using purified ovine COX-1 and COX-2 with colorimetric assay kits obtained from Cayman Chemical Co. (Ann Arbor, Mich.). The activities of COX-1 and COX-2 were measured after the addition of arachidonic acid and incubation at 25° C. for 5 min by absorbance at 590 nm as specified by the manufacturer.

recombinant human PDE5 = recombinant human PDE5 (Homo sapiens (Human), UniProt O76074); experiment: PDE5 inhibition, IMAP fluorescence polarization assay; type: biochemical; conditions: read-out: IC50 μM against PDE5
Description: as §1
PDE activity was measured using the IMAP fluorescence polarization assay (Molecular Devices) in which binding of hydrolyzed cyclic nucleotide substrate to immobilized metal coordination complexes increases fluorescence polarization (FP). Tetramethylrhodamine (TAMRA)-cGMP and fluorescein-cAMP were used as substrates, each at final concentration of 50 nmol/L. The PDE assay was done according to the manufacturer's specifications using either whole cell lysates or recombinant enzymes.

COX2 = COX2 (Ovis aries (Sheep), UniProt P79208); experiment: COX-2 activity, colorimetric assay; type: biochemical, ovine; conditions: screening dose 100 μM; read-out: IC50 μM against COX2
Chain of COX2 (P79208 17-603): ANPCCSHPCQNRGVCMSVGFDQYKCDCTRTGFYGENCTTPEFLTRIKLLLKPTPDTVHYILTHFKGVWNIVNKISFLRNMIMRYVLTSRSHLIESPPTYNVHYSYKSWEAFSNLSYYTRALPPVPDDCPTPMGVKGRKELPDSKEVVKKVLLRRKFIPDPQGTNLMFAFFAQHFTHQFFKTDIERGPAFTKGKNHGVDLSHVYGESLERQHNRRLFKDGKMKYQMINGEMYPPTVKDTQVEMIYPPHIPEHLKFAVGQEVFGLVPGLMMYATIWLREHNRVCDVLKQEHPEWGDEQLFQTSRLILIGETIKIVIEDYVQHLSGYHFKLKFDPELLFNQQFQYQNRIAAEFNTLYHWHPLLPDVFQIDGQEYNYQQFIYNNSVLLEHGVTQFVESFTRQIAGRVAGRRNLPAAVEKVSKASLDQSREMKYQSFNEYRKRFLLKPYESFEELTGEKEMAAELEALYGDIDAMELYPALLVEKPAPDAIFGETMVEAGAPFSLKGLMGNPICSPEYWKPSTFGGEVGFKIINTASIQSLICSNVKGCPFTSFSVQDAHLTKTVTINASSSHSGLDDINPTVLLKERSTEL
Description: as §1, §2

[3] = recombinant human PDE5, IC50 determined if inhibition >50% at 50 μM screening dose

Structure (SMILES)	IC50 ([1]; HT-29, 72 hours) [µM]	IC50 ([2]; MDA-MB-231, 72 hours) [µM]	IC50 (COX1) [µM]	IC50 (recombinant human PDE5; [3]) [µM]	IC50 (COX2) [µM]	IC50 ([1]; 72 hours) [µM]	IC50 ([2]; 72 hours) [µM]	IC50 (recombinant human PDE5) [µM]
COc1ccc(C2CC(C(C)(C)C)=NN2c2ccc(C(=O)O)cc2)cc1 (stereo not shown) [Compound 1, 4-(3-tert-Butyl-5-(4-methoxyphenyl)-4,5-dihydro-1H-pyrazol-1-yl)benzoic acid]	> 50	> 50	> 100	2.02	> 100	–	–	–
CC(C)(C)C1=NN(c2ccc(C(=O)O)cc2)C(c2ccc([N+](=O)[O-])cc2)C1 (stereo not shown) [Compound 2, 4-(3-tert-Butyl-5-(4-nitrophenyl)-4,5-dihydro-1H-pyrazol-1-yl)benzoic acid]	> 50	> 50	> 100	5.7	> 100	–	–	–
CC(C)(C)C1=NN(c2ccc(C(=O)O)cc2)C(c2cccc([N+](=O)[O-])c2)C1 (stereo not shown) [Compound 3, 4-(3-tert-Butyl-5-(3-nitrophenyl)-4,5-dihydro-1H-pyrazol-1-yl)benzoic acid]	–	–	> 100	3.2	> 100	> 50	> 50	–
COc1ccc(C2CC(C(C)(C)C)=NN2c2ccc(C(=O)O)cc2)c(OC)c1 (stereo not shown) [Compound 4, 4-(3-tert-Butyl-5-(2,4-dimethoxyphenyl)-4,5-dihydro-1H-pyrazol-1-yl)benzoic acid]	> 50	> 50	> 100	–	> 100	–	–	23.5
CC(C)(C)C1=NN(c2ccc(C(=O)O)cc2)C(c2ccc(O)cc2)C1 (stereo not shown) [Compound 5, 4-(3-tert-Butyl-5-(4-hydroxyphenyl)-4,5-dihydro-1H-pyrazol-1-yl)benzoic acid]	> 50	> 50	> 100	2.1	> 100	–	–	–
CC(C)(C)C1=NN(c2cccc(C(=O)O)c2)C(c2ccc(Cl)cc2)C1 (stereo not shown) [Compound 6, 3-(3-tert-Butyl-5-(4-chlorophenyl)-4,5-dihydro-4H-pyrazol-1-yl)benzoic acid]	39.9	> 50	> 100	9.9	> 100	–	–	–
COc1ccc(C2CC(c3ccccc3)=NN2c2ccc(C(=O)O)cc2)cc1 (stereo not shown) [Compound 7, 4-(5-(4-Methoxyphenyl)-3-phenyl-4,5-dihydro-1H-pyrazol-1-yl)benzoic acid]	36.7	48	> 100	1.2	> 100	–	–	–
COc1ccc(C2CC(c3ccccc3OC)=NN2c2ccc(C(=O)O)cc2)cc1 (stereo not shown) [Compound 8, 4-(3-(2-Methoxyphenyl)-5-(4-methoxyphenyl)-4,5-dihydro-1H-pyrazol-1-yl)benzoic acid]	> 50	> 50	> 100	3.2	> 100	–	–	–
COc1ccc(C2CC(c3cccc(OC)c3)=NN2c2ccc(C(=O)O)cc2)cc1 (stereo not shown) [Compound 9, 4-(3-(3-Methoxyphenyl)-5-(4-methoxyphenyl)-4,5-dihydro-1H-pyrazol-1-yl)benzoic acid]	25.9	45.6	> 100	1.8	> 100	–	–	–
COc1ccc(C2CC(c3ccc(OC)c(OC)c3)=NN2c2ccc(C(=O)O)cc2)cc1 (stereo not shown) [Compound 10, 4-(3-(3,4-Dimethoxyphenyl)-5-(4-methoxyphenyl)-4,5-dihydro-1H-pyrazol-1-yl)benzoic acid]	42.5	> 50	> 100	6.9	> 100	–	–	–
COc1ccc(C2CC(c3ccccc3)=NN2c2ccc(S(N)(=O)=O)cc2)cc1 (stereo not shown) [Compound 11, 4-(5-(4-Methoxyphenyl)-3-phenyl-4,5-dihydro-1H-pyrazol-1-yl)benzenesulfonamide]	15.6	27.6	> 100	3.8	> 100	–	–	–
CC(C)(C)C1=NN(c2ccc(C(=O)O)cc2)C(c2ccc(Cl)c(Cl)c2)C1 (stereo not shown) [Compound 13, 4-(3-(tert-Butyl)-5-(3,4-dichlorophenyl)-4,5-dihydro-1H-pyrazol-1-yl)benzoic acid]	25.7	> 50	> 100	5.5	> 100	–	–	–
CC(C)(C)C1=NN(c2ccc(C(=O)O)cc2)C(c2ccccc2Br)C1 (stereo not shown) [Compound 14, 4-(5-(2-Bromophenyl)-3-(tert-butyl)-4,5-dihydro-1H-pyrazol-1-yl)benzoic acid]	39.6	> 50	> 100	6.9	> 100	–	–	–
CCOc1ccc(C2CC(C(C)(C)C)=NN2c2ccc(C(=O)O)cc2)cc1 (stereo not shown) [Compound 15, 4-(3-(tert-Butyl)-5-(4-ethoxyphenyl)-4,5-dihydro-1H-pyrazol-1-yl)benzoic acid]	6	> 50	> 100	2.9	> 100	–	–	–
CC(C)(C)C1=NN(c2ccc(C(=O)O)cc2)C(c2cccc(Br)c2)C1 (stereo not shown) [Compound 16, 4-(5-(3-Bromophenyl)-3-(tert-butyl)-4,5-dihydro-1H-pyrazol-1-yl)benzoic acid]	8.8	> 50	> 100	3.1	> 100	–	–	–
CC(C)(C)C1=NN(c2ccc(C(=O)O)cc2)C(c2ccccc2Cl)C1 (stereo not shown) [Compound 17, 4-(3-(tert-Butyl)-5-(2-chlorophenyl)-4,5-dihydro-1H-pyrazol-1-yl)benzoic acid]	20.8	> 50	> 100	1.9	> 100	–	–	–
CC(C)(C)C1=NN(c2ccc(C(=O)O)cc2)C(c2ccccc2F)C1 (stereo not shown) [Compound 18, 4-(3-(tert-Butyl)-5-(2-fluorophenyl)-4,5-dihydro-1H-pyrazol-1-yl)benzoic acid]	> 50	> 50	> 100	3.3	> 100	–	–	–
CC(C)(C)C1=NN(c2ccc(C(=O)O)cc2)C(c2cccc(F)c2)C1 (stereo not shown) [Compound 19, 4-(3-(tert-Butyl)-5-(3-fluorophenyl)-4,5-dihydro-1H-pyrazol-1-yl)benzoic acid]	> 50	> 50	> 100	2.7	> 100	–	–	–
CCOc1ccccc1C1CC(C(C)(C)C)=NN1c1ccc(C(=O)O)cc1 (stereo not shown) [Compound 20, 4-(3-(tert-Butyl)-5-(2-ethoxyphenyl)-4,5-dihydro-1H-pyrazol-1-yl)benzoic acid]	–	–	> 100	2	> 100	22	> 50	–
CC(C)(C)C1=NN(c2ccc(C(=O)O)cc2)C(c2ccc(Cl)cc2)C1 (stereo not shown) [Compound 21, 4-(3-tert-Butyl-5-(4-chlorophenyl)-4,5-dihydro-1H-pyrazol-1-yl)benzoic acid]	> 50	> 50	> 100	8.7	> 100	–	–	–
CC(C)(C)C1=NN(c2ccc(C(=O)O)cc2)C(c2ccccc2)C1 (stereo not shown) [Compound 22, 4-(3-tert-Butyl-5-phenyl-4,5-dihydro-1H-pyrazol-1-yl)benzoic acid]	> 50	> 50	> 100	6.22	> 100	–	–	–
Cc1ccc(C2CC(C(C)(C)C)=NN2c2ccc(C(=O)O)cc2)cc1 (stereo not shown) [Compound 23, 4-(3-tert-Butyl-5-p-tolyl-4,5-dihydro-1H-pyrazol-1-yl)benzoic acid]	> 50	> 50	> 100	8.4	> 100	–	–	–
CC(C)(C)C1=NN(c2ccc(C(=O)O)cc2)C(c2ccc(Br)cc2)C1 (stereo not shown) [Compound 24, 4-(5-(4-Bromophenyl)-3-tert-butyl-4,5-dihydro-1H-pyrazol-1-yl)benzoic acid]	> 50	> 50	> 100	7.7	> 100	–	–	–
CC(C)(C)C1=NN(c2ccc(S(=O)(=O)O)cc2)C(c2ccc(F)cc2)C1 (stereo not shown) [Compound 25, 4-(3-tert-Butyl-5-(4-fluorophenyl)-4,5-dihydro-1H-pyrazol-1-yl)benzenesulfonic acid]	> 50	> 50	> 100	3.3	> 100	–	–	–
CC(C)(C)C1=NN(c2ccc(S(=O)(=O)O)cc2)C(c2ccc(Cl)cc2)C1 (stereo not shown) [Compound 26, 4-(3-tert-Butyl-5-(4-chlorophenyl)-4,5-dihydro-1H-pyrazol-1-yl)benzenesulfonic acid]	> 50	> 50	> 100	7.2	> 100	–	–	–
COc1ccc(C2CC(c3ccc(F)cc3)=NN2c2ccc(C(=O)O)cc2)cc1 (stereo not shown) [Compound 27, 4-(3-(4-Fluorophenyl)-5-(4-methoxyphenyl)-4,5-dihydropyrazol-1-yl)benzoic acid]	> 50	> 50	> 100	3.1	> 100	–	–	–

From US9388139B2, “Derivatives of celeboxib, use thereof and preparation thereof” (German University, priority 2011, dated 2016)
